In US4925834A, “3-methylene-4-androsten-17-ones, process for their production and pharmaceutical preparations containing them” (Schering Aktiengesellschaft, priority 1987, dated 1990):

Test system: aromatase
Experiment: PMSG test in infantile female rats, orally (serum estradiol)
Assay type: in vivo, rat
Conditions: for Concentration in serum estradiol / % inhibition (against the PMSG control): 10 mg/animal, 2 × p.o., PMSG-treated infantile female rats; for Concentration in serum estradiol: mean with standard deviation, groups of 10; for % inhibition (against the PMSG control): serum estradiol; for effectiveness in oral application: 2×10 mg, PMSG test, in words
Experimental: The aromatase activity can be measured by the influence of the estrogen formation stimulated by PMSG. [J. Steroid. Biochem., 7 (1976) 787] Anit-tumor activity in humans of compounds which have a positive effect in the PMSG test is described in The Lancet, 1 Dec. 1984, ppg. 1237-1239.
In the so-called PMSG test 21-day-old female rats are pretreated subcutaneously every other day for a total of 7 times with 100 IU of PMSG each time. 1 hour before and 8 hours after the last PMSG application (d12) the animals receive the test substance by oral dose. They are killed 24 hours after the last PMSG application. The estradiol is examined radioimmunologically in the serum. The average value of the estradiol concentration in nmol/l with standard deviation is calculated for each group of 10 animals. The significance of the differences from the control group are examined by analysis of variance.
The percentage inhibition is calculated against the PMSG control.

In the case of `C=C1C=C2CC[C@@H]3[C@H](CC[C@]4(C)C(=O)CC[C@@H]34)[C@@]2(C)CC1` (stereo in doubt) [B, 3-methylene-4-androsten-17-one], the “Concentration in serum estradiol” value is reported as 6.20 ± 0.80 nmol/L, the “% inhibition (against the PMSG control)” value is reported as 0% and the “effectiveness in oral application” value is reported as “no effectiveness”.

For `C[C@]12CCC(=O)C(O)=C1CC[C@@H]1[C@@H]2CC[C@]2(C)C(=O)CC[C@@H]12` [A, 4-hydroxy-4-androstene-3,17-dione], the “Concentration in serum estradiol” value was 6.08 ± 0.56 nmol/L, the “% inhibition (against the PMSG control)” value was 0% and the “effectiveness in oral application” value was “no effectiveness”.

`CSC[C@]12CCC(=CF)C=C1CC[C@@H]1[C@@H]2CC[C@]2(C)C(=O)CC[C@@H]12` [C, 3-fluoromethylene-19-methylthio-4-androsten-17-one] was tested, and the “Concentration in serum estradiol” value was 3.24 ± 0.81 nmol/L, the “% inhibition (against the PMSG control)” value was 45% and the “effectiveness in oral application” value was “markd inhibition effectiveness”.
